Data from PMC7094215, “Synthesis and Evaluation of Antileishmanial and Cytotoxic Activity of Benzothiopyrane Derivatives” (Molecules, 2020).
Read-outs that look alike come from different tables or passages of the source.

Legend:
[1] = system: intracellular amastigotes of L. panamensis (MHOM/CO/87/UA140-EGFP strain); test: In vitro antileishmanial activity on intracellular amastigotes (GFP, flow cytometry); format: cell-based, Leishmania (V) panamensis; conditions: for EC50: intracellular amastigotes in U-937 cells, 72 h exposure, mean ± SD, Probit; for SI (Selectivity Index = LC50/EC50): LC50 U-937 / EC50 L. panamensis amastigotes
Procedure: Antileishmanial activity of compounds was determined according to the ability of the compound to reduce the infection by L. panamensis parasites. For this, the antileishmanial activity was tested on intracellular amastigotes of L. panamensis transfected with the green fluorescent protein gene (MHOM/CO/87/UA140-EGFP strain). Briefly, U-937 human cells at a density of 3 × 10^5 cells/mL in RPMI 1640 and 0.1 μg/mL of PMA (phorbol-12-myristate-13-acetate) were dispensed on 24-wells microplate and then infected with stationary phase growing L. panamensis promastigotes in 15:1 parasites per cell ratio. Plates were incubated at 34 °C and 5% CO2 for 3 h, and then cells were washed twice with phosphate buffer solution (PBS) to eliminate not internalized parasites. Fresh RPMI-1640 was added into each well (1 mL), and plates were incubated again. After 24 h of infection, the RPMI-1640 medium was replaced by fresh culture medium containing each compound at four serial dilutions (50, 12.5, 3.125 and 0.78 μg/mL) and plates were then incubated at 37 °C and 5% CO2 during 72 h, then, cells were removed from the bottom plate with 100 µL of EDTA/trypsin (250 mg) solution. The cells were centrifuged at 1100 rpm during 10 min at 4 °C, the supernatant was discarded, and cells were washed with 1 mL of cold PBS and centrifuged at 1100 rpm for 10 min at 4 °C. Cells were washed two times employing PBS, as previously, and after the last wash, the supernatant was discarded, and cells were suspended in 500 μL of PBS.
Cells were analyzed by flow cytometry employing a flow cytometer (FC 500MPL, Cytomics, Beckman Coulter. Pasadena, CA, USA) reading at 488 nm (exciting) and 525 nm (emitting) over an argon laser and counting 10,000 events. Infected cells were determined according to the events for green fluorescence (parasites). All determinations for each compound and standard drug were carried out by triplicate, in two experiments. Infected cells exposed to control drug (amphotericin B) were used as the control for antileishmanial activity (positive control), while infected cells incubated in the absence of any compound or drug were used as another control for infection (negative control). Nonspecific fluorescence was corrected by subtracting the fluorescence of unstained cells. Determinations were done by triplicate in at least two independent experiments.
The antileishmanial activity was determined according to the reduction of the percentage of fluorescent parasites determined according to the median fluorescence intensity (MFI) obtained for each experimental condition by cytometry. The parasite values for each concentration of compound were calculated by Equation (3), where the % of parasites in control well, corresponds to 100% of parasites:(3) % Parasites=(MFI exposed parasites/MFI unexposed parasites)×100
Then, the inhibition percentage was calculated with Equation (4):(4) % Inhibitors of Parasites=100−(% Parasites)
Results of antileishmanial activities were expressed as the median effective concentrations (EC50) measured by Probit method.

[2] = system: human monocytes (U-937 ATCC CRL-1593.2); test: Cytotoxic activity, MTT method; format: cell-based; conditions: 72 h
Procedure: (§1) Cytotoxicity of the compounds was evaluated on human monocytes (U-937 ATCC CRL-1593.2) in an exponential growth phase and adjusted at 1 × 10^5 cells/mL in RPMI-1640 enriched with 10% fetal bovine serum (FBS). One hundred microliters of cell suspension were dispensed in each well of a 96-wells microplate, and then 100 μL of 200-50-12.5 and 3.125 μg/mL concentration of each compound or standard drug (amphotericin B) were added dissolved in PBS with 0.5% DMSO. Cell exposed to compounds or standard drugs were incubated 72 h at 37 °C and 5% of CO2. Cytotoxic activity of each compound was determined according to the effect on the cell viability by the MTT microenzymatic method in which 3-(4,5-dimethylthiazol-2-yl)-2,5-diphenyltetrazolium bromide is reduced to a purple formazan product by mitochondrial enzyme succinate dehydrogenase. Thus, 10 μL/well of MTT solution (5 mg/mL) was added to each well of exposed and unexposed cells, and plates were incubated at 37 °C, 5% CO2 during 3 h. The reaction was stopped by adding 100 μL/well of isopropanol with 50% and 10% of SDS (sodium dodecyl sulfate). The concentration of formazan was determined spectrophotometrically at 570 nm (Varioskan, Thermo, Waltham, MA, USA) and intensity of color (absorbance) was registered as O.D. Cells exposed to control drug (amphotericin B) were used as control for toxicity (positive control) while cell incubated in the absence of any compound or drug were used as control for viability (negative control). Non-specific absorbance was corrected by subtracting absorbance (O.D) of the blank. Determinations were done by triplicate in at least two independent experiments.
(§2) Cytotoxicity was determined according to viability and mortality percentages obtained for each experimental condition (synthesized compounds, amphotericin B, and culture medium). Results were expressed as the mean lethal concentrations (LC50), the concentration necessary to kill 50% of cells, calculated by the parametric method of linear regression that permits doses-response analysis (Probit analysis).
(§3) Initially, viability percentages were calculated by Equation (1), where the O.D of control well, corresponds to 100% of viability:(1) % Viability=(O.D. exposed cells/O.D. unexposed cells)×100
(§4) Then, the percentage of cell growth inhibition was calculated using Equation (2):(2) % Inhibition =100−(% Viability)
(§5) The toxicity was defined according to LC50 values, using the follow scale: Toxic; LC50 < 100 μM; moderately toxic; LC50 > 100 μM and < 200 μM and potentially nontoxic; LC50 > 200 μM.

[3] = Cytotoxic activity, MTT method; format: cell-based; conditions: human, LC50
Procedure: as §1, §2, §3, §4, §5

[4] = Leishmania panamensis, U-937, 72 h

Compound	EC50 [1]	CC50 ([2]; U-937 cells, MTT, mean ± SD, Probit, read-out: LC50 (the source's name))	SI (Selectivity Index = LC50/EC50) [1]	CC50 ([2]; human)	EC50 [1, 4]	CC50 at 72 h [3]
4-(2-Carbamoylhydrazineylidene)thiochromane-2-carboxylic acid [Compound 26c]	> 189 µM	1160 ± 340 µM				
O=C1CC(C(=O)O)Sc2ccccc21 (stereo not drawn) [20a (-), 4-oxo-thiochroman-2-carboxylic acid]	53.5 ± 10.8 µM		0.6	33 ± 1.5 µM		
CCCCOC(=O)C1CC(=O)c2ccccc2S1 (stereo not drawn) [22b (+), butyl 4-oxothiochromane-2-carboxylates]	368 ± 24.2 µM		0.2	74.9 ± 52.8 µM		
CCCCOC(=O)C1CC(=O)c2ccccc2S1 (stereo not drawn) [22b (-), butyl 4-oxothiochromane-2-carboxylates]	53 ± 10.8 µM		0.5	28.8 ± 4.5 µM		
Cc1ccccc1NC(=O)C1CC(=O)c2ccccc2S1 (centres unmarked) [Compound 24c, 4-Oxo-N-(o-tolyl)thiochromane-2-carboxamide]			< 1.2		> 101 µM	119 ± 10.9 µM
CCOC(=O)C1CC(=NNC(=O)c2ccccc2)c2ccccc2S1 (centres unmarked) [Compound 26a, Ethyl 4-(2-benzoylhydrazineylidene)thiochromane-2-carboxylate]			0.5		28.5 ± 6.3 µM	15.4 ± 0.2 µM
CCOC(=O)C1CC(=NNC(=O)c2ccncc2)c2ccccc2S1 (centres unmarked) [Compound 26b, Ethyl 4-(2-isonicotinoylhydrazineylidene)thiochromane-2-carboxylate]			0.3		53.2 ± 41 µM	15.2 ± 0.2 µM
